The values below are quoted from earlier work in PubChem BioAssay AID1259409 (Chemical Carcinogenesis Research Information System (CCRIS), 2018).

The subject of the series is rodent chemically induced tumor inhibition, incidence and multiplicity. Put plainly: CCRIS tumor inhibitor studies. The note with it: for tumour outcome (control, treated, inhibition, significance): Promoter: NONE USED.

Regarding `S=C=NCc1ccccc1`, the “tumour outcome (control, treated, inhibition, significance)” value (Carcinogen: 7,12-DIMETHYLBENZ[A]ANTHRACENE, 57-97-6, Dose [Inhibitor]: 50 MG ONCE 4 HR BEFORE DMBA TREATMENT (STUDY DURATION: 18 WK), Route [Inhibitor]: INTRAGASTRIC, Species: RAT, Strain/Sex: SPRAGUE-DAWLEY/FEMALE, Target Tissue: Type of Lesion: MAMMARY GLAND: TUMOR, Dose [Carcinogen]: 12 MG IN 1 ML OLIVE OIL AT AGE 7 WK 4 HR BEFORE AGENT TREATMENT) was 100%, 14%, 86%, p<0.001; the “tumour outcome (control, treated, inhibition, significance)” value (Carcinogen: 7,12-DIMETHYLBENZ[A]ANTHRACENE, 57-97-6, Dose [Inhibitor]: 50 MG ONCE 24 HR BEFORE DMBA TREATMENT (STUDY DURATION: 18 WK), Route [Inhibitor]: INTRAGASTRIC, Species: RAT, Strain/Sex: SPRAGUE-DAWLEY/FEMALE, Target Tissue: Type of Lesion: MAMMARY GLAND: TUMOR, Dose [Carcinogen]: 12 MG IN 1 ML OLIVE OIL AT AGE 7 WK 24 HR AFTER AGENT TREATMENT) is recorded as 93%, 71%, 24%, not significant; the “tumour outcome (control, treated, inhibition, significance)” value (Carcinogen: BENZO[A]PYRENE, 50-32-8, Dose [Inhibitor]: 0, 6.7 UMOL IN COTTONSEED OIL 15 MIN PRIOR TO CARCINOGEN DOSES 1/2 WK FOR 3 TREATMENTS (STUDY DURATION: 26 WK), Route [Inhibitor]: GAVAGE, Species: MOUSE, Strain/Sex: STRAIN-A/FEMALE, Target Tissue: Type of Lesion: FORESTOMACH: TUMOR, Dose [Carcinogen]: 7.9 UMOL IN COTTONSEED OIL 1/2 WK FOR 3 TREATMENTS) is 95%, 95%, 0%, not significant; the “tumour outcome (control, treated, inhibition, significance)” value (Carcinogen: BENZO[A]PYRENE, 50-32-8, Dose [Inhibitor]: 0, 6.7 UMOL IN COTTONSEED OIL 15 MIN PRIOR TO CARCINOGEN DOSES 1/2 WK FOR 3 TREATMENTS (STUDY DURATION: 26 WK), Route [Inhibitor]: GAVAGE, Species: MOUSE, Strain/Sex: STRAIN-A/FEMALE, Target Tissue: Type of Lesion: LUNG: TUMOR, Dose [Carcinogen]: 7.9 UMOL IN COTTONSEED OIL 1/2 WK FOR 3 TREATMENTS) is 95%, 80%, 16%, not significant; the “tumour outcome (control, treated, inhibition, significance)” value (Carcinogen: BENZO[A]PYRENE, 50-32-8, Dose [Inhibitor]: 5 MG/G DIET AT AGE 9 WK SIMULTANEOUSLY WITH CARCINOGEN, 3/WK FOR 6 WK (STUDY DURATION: 20 WK), Route [Inhibitor]: ORAL, Species: MOUSE, Strain/Sex: ICR/FEMALE, Target Tissue: Type of Lesion: FORESTOMACH: TUMOR, Dose [Carcinogen]: 0.3 MG/G DIET AT AGE 9 WK, 3/WK FOR 6 WK) is on record as 41%, 0%, 100%, p<0.01; the “tumour outcome (control, treated, inhibition, significance)” value (Carcinogen: DIETHYLNITROSAMINE, 55-18-5, Dose [Inhibitor]: 0, 100 PPM IN DIET FOR DURATION OF STUDY BEGINNING 1 WK PRIOR TO CARCINOGEN DOSE (STUDY DURATION: 53 WK), Route [Inhibitor]: ORAL, Species: RAT, Strain/Sex: ACI/MALE, Target Tissue: Type of Lesion: LIVER: HEPATOCELLULAR ADENOMA, Dose [Carcinogen]: 200 MG/KG BW ONCE) is recorded as 10/18 (55%), 1/17 (6%), 89%, p<0.002. The “tumour outcome (control, treated, inhibition, significance)” value was 6/18 (33%), 0/17 (0%), 100%, p<0.02 (Carcinogen: DIETHYLNITROSAMINE, 55-18-5, Dose [Inhibitor]: 0, 100 PPM IN DIET FOR DURATION OF STUDY BEGINNING 1 WK PRIOR TO CARCINOGEN DOSE (STUDY DURATION: 53 WK), Route [Inhibitor]: ORAL, Species: RAT, Strain/Sex: ACI/MALE, Target Tissue: Type of Lesion: LIVER: HEPATOCELLULAR CARCINOMA, Dose [Carcinogen]: 200 MG/KG BW ONCE); 15/18 (83%), 9/19 (47%), 43%, p<0.05 (Carcinogen: METHYLAZOXYMETHANOL ACETATE, 592-62-1, Dose [Inhibitor]: 0, 400 PPM IN DIET FOR 4 WK BEGINNING 1 WK PRIOR TO CARCINOGEN TREATMENT (STUDY DURATION: 49 WK), Route [Inhibitor]: ORAL, Species: RAT, Strain/Sex: ACI/FEMALE, Target Tissue: Type of Lesion: COLON: ADENOMA OR CARCINOMA, Dose [Carcinogen]: 25 MG/KG BW 1/WK FOR 3 WK); 15/18 (83%), 17/19 (89%), -7%, not significant (Carcinogen: METHYLAZOXYMETHANOL ACETATE, 592-62-1, Dose [Inhibitor]: 0, 400 PPM IN DIET FOR 46 WK BEGINNING 1 WK POST CARCINOGEN TREATMENT (STUDY DURATION: 49 WK), Route [Inhibitor]: ORAL, Species: RAT, Strain/Sex: ACI/FEMALE, Target Tissue: Type of Lesion: COLON: ADENOMA OR CARCINOMA, Dose [Carcinogen]: 25 MG/KG BW 1/WK FOR 3 WK); 10/18 (56%), 10/19 (53%), 5%, not significant (Carcinogen: METHYLAZOXYMETHANOL ACETATE, 592-62-1, Dose [Inhibitor]: 0, 400 PPM IN DIET FOR 46 WK BEGINNING 1 WK POST CARCINOGEN TREATMENT (STUDY DURATION: 49 WK), Route [Inhibitor]: ORAL, Species: RAT, Strain/Sex: ACI/FEMALE, Target Tissue: Type of Lesion: SMALL INTESTINE: CARCINOMA, Dose [Carcinogen]: 25 MG/KG BW 1/WK FOR 3 WK); 19/20 (95%), 18/20 (90%), 5%, not significant (Carcinogen: N-BUTYL-N-(4-HYDROXYBUTYL)NITROSAMINE (3817-11-6), Dose [Inhibitor]: 0, 10 PPM IN THE DIET FOR 40 WK (STUDY DURATION: 40 WK), Route [Inhibitor]: ORAL, Species: RAT, Strain/Sex: F344/MALE, Target Tissue: Type of Lesion: URINARY BLADDER: CARCINOMA, Dose [Carcinogen]: 50 PPM IN DRINKING WATER FOR 40 WK); 15/20 (75%), 11/20 (55%), 27%, not significant (Carcinogen: N-BUTYL-N-(4-HYDROXYBUTYL)NITROSAMINE (3817-11-6), Dose [Inhibitor]: 0, 10 PPM IN THE DIET FOR 40 WK (STUDY DURATION: 40 WK), Route [Inhibitor]: ORAL, Species: RAT, Strain/Sex: F344/MALE, Target Tissue: Type of Lesion: URINARY BLADDER: PAPILLOMA, Dose [Carcinogen]: 50 PPM IN DRINKING WATER FOR 40 WK). The “tumour outcome (control, treated, inhibition, significance)” value was 19/20 (95%), 15/20 (75%), 21%, not significant (Carcinogen: N-BUTYL-N-(4-HYDROXYBUTYL)NITROSAMINE (3817-11-6), Dose [Inhibitor]: 0, 100 PPM IN THE DIET FOR 40 WK (STUDY DURATION: 40 WK), Route [Inhibitor]: ORAL, Species: RAT, Strain/Sex: F344/MALE, Target Tissue: Type of Lesion: URINARY BLADDER: CARCINOMA, Dose [Carcinogen]: 50 PPM IN DRINKING WATER FOR 40 WK); 15/20 (75%), 9/20 (45%), 40%, p< 0.05 (Carcinogen: N-BUTYL-N-(4-HYDROXYBUTYL)NITROSAMINE (3817-11-6), Dose [Inhibitor]: 0, 100 PPM IN THE DIET FOR 40 WK (STUDY DURATION: 40 WK), Route [Inhibitor]: ORAL, Species: RAT, Strain/Sex: F344/MALE, Target Tissue: Type of Lesion: URINARY BLADDER: PAPILLOMA, Dose [Carcinogen]: 50 PPM IN DRINKING WATER FOR 40 WK); 19/20 (95%), 5/20 (25%), 74%, p< 0.01 (Carcinogen: N-BUTYL-N-(4-HYDROXYBUTYL)NITROSAMINE (3817-11-6), Dose [Inhibitor]: 0, 1000 PPM IN THE DIET FOR 40 WK (STUDY DURATION: 40 WK), Route [Inhibitor]: ORAL, Species: RAT, Strain/Sex: F344/MALE, Target Tissue: Type of Lesion: URINARY BLADDER: CARCINOMA, Dose [Carcinogen]: 50 PPM IN DRINKING WATER FOR 40 WK); 15/20 (75%), 2/20 (10%), 87%, p< 0.01 (Carcinogen: N-BUTYL-N-(4-HYDROXYBUTYL)NITROSAMINE (3817-11-6), Dose [Inhibitor]: 0, 1000 PPM IN THE DIET FOR 40 WK (STUDY DURATION: 40 WK), Route [Inhibitor]: ORAL, Species: RAT, Strain/Sex: F344/MALE, Target Tissue: Type of Lesion: URINARY BLADDER: PAPILLOMA, Dose [Carcinogen]: 50 PPM IN DRINKING WATER FOR 40 WK); 100%, 100%, 0%, not significant (Carcinogen: N-NITROSOMETHYLBENZYLAMINE, 937-40-6, Dose [Inhibitor]: 0, 0.4 UMOL/G IN DIET FOR 25 WK BEGINNING 2 WK PRIOR TO CARCINOGEN TREATMENT (STUDY DURATION: 25 WK), Route [Inhibitor]: ORAL, Species: RAT, Strain/Sex: F344/MALE, Target Tissue: Type of Lesion: ESOPHAGUS: TUMOR, Dose [Carcinogen]: 0.5 MG/KG BW IN 20% DMSO 1/WK FOR 15 WK); 100%, 100%, 0%, not significant (Carcinogen: N-NITROSOMETHYLBENZYLAMINE, 937-40-6, Dose [Inhibitor]: 0, 1 UMOL/G IN DIET FOR 25 WK BEGINNING 2 WK PRIOR TO CARCINOGEN TREATMENT (STUDY DURATION: 25 WK), Route [Inhibitor]: ORAL, Species: RAT, Strain/Sex: F344/MALE, Target Tissue: Type of Lesion: ESOPHAGUS: TUMOR, Dose [Carcinogen]: 0.5 MG/KG BW IN 20% DMSO 1/WK FOR 15 WK). In addition, for the setting “Carcinogen: N-NITROSOMETHYLBENZYLAMINE, 937-40-6, Dose [Inhibitor]: 0, 2.5 UMOL/G IN DIET FOR 25 WK BEGINNING 2 WK PRIOR TO CARCINOGEN TREATMENT (STUDY DURATION: 25 WK), Route [Inhibitor]: ORAL, Species: RAT, Strain/Sex: F344/MALE, Target Tissue: Type of Lesion: ESOPHAGUS: TUMOR, Dose [Carcinogen]: 0.5 MG/KG BW IN 20% DMSO 1/WK FOR 15 WK”, the “tumour outcome (control, treated, inhibition, significance)” value was 100%, 100%, 0%, not significant. For the same compound, where the note is “Carcinogen: BENZO[A]PYRENE, 50-32-8, Dose [Inhibitor]: 0, 5 UMOL IN ACETONE 4 HR PRIOR TO CARCINOGEN DOSE (STUDY DURATION: 20 WK), Route [Inhibitor]: DERMAL, Species: MOUSE, Strain/Sex: STRAIN-A/FEMALE, Target Tissue: Type of Lesion: SKIN: TUMOR, Dose [Carcinogen]: 0.1 UMOL IN ACETONE ONCE, Promoter: 12-O-TETRADECANOYLPHORBOL-13-ACETATE, 16561-29-8”, the outcome was 70%, 60%, 14%, not significant at 15 wk; 95%, 75%, 21%, not significant at 20 wk.
